The values that follow come from US20230045421A1 (priority 2018, published 2023).

For the first assay, the system named is HBV rcDNA. The assay is described as follows: HepDE19 assay with bDNA quantitation of HBV rcDNA. The class given is cell-based, hepatitis B virus. Particulars: HepDE19 assay, inhibition of formation of rcDNA; read-out: DE-19bDNA EC50. In outline: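 Compounds, top concentration 25 μM in 8-point duplicate series, were applied to Tet-free HepDE19 cultures for 7 days. Branched-DNA quantitation of HBV rcDNA against untreated wells gave EC50 and EC90 by 4-parameter fit. Viability (CC50) came from ATP luminescence on parallel plates incubated 4 days.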
On to `CC(c1c[nH]c(=O)c2ccccc12)N(C[C@@H](C)O)C(=O)Nc1ccc(F)c(Cl)c1` (single isomer, unassigned) [Compound 216], for which the EC50 worked out at 0.09 µM. As to `COc1ccc2c(C(C)N(C)C(=O)Nc3ccc(F)c(Cl)c3)c[nH]c(=O)c2c1` (single isomer, unassigned) [Compound 177, 3-(3-Chloro-4-fluorophenyl)-1-(1-(7-methoxy-1-oxo-1,2-dihydroisoquinolin-4-yl)ethyl)-1-methylurea], the EC50 came to 2.2 µM. Take `CC(c1cnc(N(C)C)c2ccccc12)N(C)C(=O)Nc1ccc(F)c(Cl)c1` (single isomer, unassigned) [Compound 234, 3-(3-Chloro-4-fluorophenyl)-1-(1-(1-(dimethylamino)isoquinolin-4-yl)ethyl)-1-methylurea]: the EC50 turned out to be 0.65 µM.

`CC(c1c[nH]c(=O)c2ccccc12)N(C[C@H](C)O)C(=O)Nc1ccc(F)c(Cl)c1` (single isomer, unassigned) [Compound 218]: the EC50 was found to be 0.08 µM. The same measure, in the same setting: next, `CC(c1cn(Cc2c[nH]nn2)c(=O)c2ccccc12)N(C)C(=O)Nc1ccc(F)c(Cl)c1` (single isomer, unassigned) [Compound 276, 1-(1-(2-((1H-1,2,3-Triazol-4-yl)methyl)-1-oxo-1,2-dihydroisoquinolin-4-yl)ethyl)-3-(3-chloro-4-fluorophenyl)-1-methylurea]: 2.7 µM. The same measure, in the same setting: next, `Cc1cc(NC(=O)N(C)C(C)c2c(C)[nH]c(=O)c3ccccc23)ccc1F` (single isomer, unassigned) [Compound 237, 3-(4-Fluoro-3-methylphenyl)-1-methyl-1-(1-(3-methyl-1-oxo-1,2-dihydroisoquinolin-4-yl)ethyl)urea]: 0.04 µM; `COCCCN(C(=O)Nc1ccc(F)c(Cl)c1)C(C)c1c[nH]c(=O)c2ccccc12` (stereo not drawn) [Compound 79]: 2.1 µM; `CNc1ncc(C(C)N(C)C(=O)Nc2ccc(F)c(Cl)c2)c2ccccc12` (single isomer, unassigned) [Compound 231, 3-(3-Chloro-4-fluorophenyl)-1-methyl-1-(1-(1-(methylamino)isoquinolin-4-yl)ethyl)urea]: 12 µM.

As to `CC(c1c[nH]c(=O)c2ccccc12)N(CCS(C)(=O)=O)C(=O)Nc1ccc(F)c(Cl)c1` (single isomer, unassigned) [Compound 107, 3-(3-Chloro-4-fluorophenyl)-1-(2-(methylsulfonyl)ethyl)-1-(1-(1-oxo-1,2-dihydroisoquinolin-4-yl)ethyl)urea], the EC50 was 17 µM. As to `COCCOCCN(C(=O)Nc1ccc(F)c(Cl)c1)C(C)c1cnc(OC)c2ccccc12` (single isomer, unassigned) [Compound 122, 3-(3-Chloro-4-fluorophenyl)-1-(2-(2-methoxyethoxy)ethyl)-1-(1-(1-methoxyisoquinolin-4-yl)ethyl)urea], the EC50 came out at 1.2 µM.

Still in this assay, the particulars now being: HepDE19 assay, inhibition of formation of relaxed circular DNA (rcDNA), bDNA quantitation; read-out: DE-19bDNA EC50.
With `CC(c1c[nH]c(=O)c2c(F)c(F)ccc12)N(CCCO)C(=O)Nc1ccc(F)c(Cl)c1` (single isomer, unassigned) [Compound 334, 3-(3-Chloro-4-fluorophenyl)-1-(1-(7,8-difluoro-1-oxo-1,2-dihydroisoquinolin-4-yl)ethyl)-1-(3-hydroxypropyl)urea], the concentration for a half-maximal effect (EC50) turned out to be 2 µM. For the compound `CC(c1c[nH]c(=O)c2cc(F)c(F)cc12)N(C)C(=O)Nc1ccc(F)c(F)c1` (single isomer, unassigned) [Compound 409, 1-(1-(6,7-Difluoro-1-oxo-1,2-dihydroisoquinolin-4-yl)ethyl)-3-(3,4-difluorophenyl)-1-methylurea], the EC50 worked out at 0.013 µM. In the case of `CC(c1c[nH]c(=O)c2ccccc12)N(Cc1cccnc1)C(=O)Nc1ccc(F)c(Cl)c1` (single isomer, unassigned) [Compound 306, 3-(3-Chloro-4-fluorophenyl)-1-(1-(1-oxo-1,2-dihydroisoquinolin-4-yl)ethyl)-1-(pyridin-3-ylmethyl) urea], the EC50 turned out to be 1 µM. `CC(c1c[nH]c(=O)c2c(F)c(F)ccc12)N(CCS(N)(=O)=O)C(=O)Nc1ccc(F)c(Cl)c1` (single isomer, unassigned) [Compound 391, 2-(3-(3-Chloro-4-fluorophenyl)-1-(1-(7,8-difluoro-1-oxo-1,2-dihydroisoquinolin-4-yl)ethyl)ureido) ethane-1-sulfonamide]: the EC50 turned out to be 2.9 µM. As to `CC(c1c[nH]c(=O)c2cc(F)c(F)cc12)N(C)C(=O)Nc1ccnc(Cl)c1` (single isomer, unassigned) [Compound 418, 3-(2-Chloropyridin-4-yl)-1-(1-(6,7-difluoro-1-oxo-1,2-dihydroisoquinolin-4-yl)ethyl)-1-methylurea], the EC50 came out at 10 µM.

Turning to `CC(c1c[nH]c(=O)c2cc(F)c(F)cc12)N(C)C(=O)NCc1ccc(F)c(Cl)c1` (single isomer, unassigned) [Compound 483, 3-(3-Chloro-4-fluorobenzyl)-1-(1-(6,7-difluoro-1-oxo-1,2-dihydroisoquinolin-4-yl)ethyl)-1-methylurea], the EC50 stood at 0.27 µM. Turning to `CC(C)CN(C(=O)Nc1ccc(F)c(Cl)c1)C(C)c1cn(C)c(=O)c2cc(F)c(F)cc12` (single isomer, unassigned) [Compound 343, 3-(3-Chloro-4-fluorophenyl)-1-(1-(6,7-difluoro-2-methyl-1-oxo-1,2-dihydroisoquinolin-4-yl)ethyl)-1-isobutylurea], the EC50 came to 0.006 µM.

The assay is the same for the next values; noted with them: Hepatitis B virus, HepDE19, HepDE19 assay, inhibition of formation of rcDNA; read-out: DE-19bDNA EC50.
In the case of `COc1cccc2c(=O)[nH]cc(C(C)N(C)C(=O)Nc3ccc(F)c(Cl)c3)c12` (single isomer, unassigned) [Compound 265, 3-(3-chloro-4-fluorophenyl)-1-(1-(5-methoxy-1-oxo-1,2-dihydroisoquinolin-4-yl)ethyl)-1-methylurea], the EC50 was 1.5 µM.

In the case of `CC(c1c[nH]c(=O)c2ccccc12)N(CC(N)=O)C(=O)Nc1ccc(F)c(Cl)c1` (racemic) [Compound 128, 2-(3-(3-Chloro-4-fluorophenyl)-1-(1-(1-oxo-1,2-dihydroisoquinolin-4-yl)ethyl)ureido) acetamide], the EC50 is 1.5 µM.

For the compound `COc1ncc(C(C)N(CCNCC(F)(F)F)C(=O)Nc2ccc(F)c(Cl)c2)c2ccccc12` (racemic) [Compound 158, 3-(3-Chloro-4-fluorophenyl)-1-(1-(1-methoxyisoquinolin-4-yl)ethyl)-1-(2-((2,2,2-trifluoroethyl)amino)ethyl)urea], the EC50 was 2.7 µM.

With `COc1ncc(CN(C)C(=O)Nc2ccc(F)c(Cl)c2)c2ccccc12` [Compound 2, 3-(3-Chloro-4-fluorophenyl)-1-((1-methoxyisoquinolin-4-yl)methyl)-1-methylurea], the 50% effective concentration (EC50) turned out to be 2 µM. On the same count and under the same terms, the figure for `CCCCN(Cc1cnc(OC)c2ccccc12)C(=O)Nc1ccc(F)c(Cl)c1` [Compound 33, 1-Butyl-3-(3-chloro-4-fluorophenyl)-1-((1-methoxyisoquinolin-4-yl)methyl)urea] is 0.62 µM; for `COc1ncc(CN(Cc2ccccc2)C(=O)Nc2ccc(F)c(Cl)c2)c2ccccc12` [Compound 48, 1-Benzyl-3-(3-chloro-4-fluorophenyl)-1-((1-methoxyisoquinolin-4-yl)methyl)urea] it is 2.1 µM; for `CNS(=O)(=O)CCCN(C(=O)Nc1ccc(F)c(Cl)c1)C(C)c1c[nH]c(=O)c2ccccc12` (single isomer, unassigned) [Compound 220, 3-(3-(3-Chloro-4-fluorophenyl)-1-(1-(1-oxo-1,2-dihydroisoquinolin-4-yl)ethyl)ureido)-N-methylpropane-1-sulfonamide] it is 0.14 µM.

With `Cc1cc(NC(=O)N(CC(F)F)[C@H](C)c2c[nH]c(=O)c3ccccc23)ccc1F` [Compound 97, (R)-3-(3-Methyl-4-fluorophenyl)-1-(2,2-difluoroethyl)-1-(1-(1-oxo-1,2-dihydroisoquinolin-4-yl)ethyl)urea], the EC50 is 0.11 µM.

The same assay, now with this note: Hepatitis B virus, HepDE19, read-out: DE-19bDNA EC50 (μM), HepDE19 assay, inhibition of formation of rcDNA.
For the compound `CCN(C(=O)Nc1ccc(F)c(Cl)c1)C(c1ccccc1)c1c[nH]c(=O)c2ccccc12` (single isomer, unassigned) [Compound 69, 3-(3-Chloro-4-fluorophenyl)-1-ethyl-1-((1-oxo-1,2-dihydroisoquinolin-4-yl)(phenyl)methyl)urea], the EC50 came to 9.7 µM.

The assay is the same for the next values; noted with them: read-out: DE-19bDNA EC50; HepDE19 assay, inhibition of formation of rcDNA.
For the compound `CCCCN(C(=O)Nc1ccc(F)c(Cl)c1)C(C)c1c[nH]c(=O)c2ccccc12` (single isomer, unassigned) [Compound 84, 1-Butyl-3-(3-chloro-4-fluorophenyl)-1-(1-(1-oxo-1,2-dihydroisoquinolin-4-yl)ethyl)urea], the concentration giving a half-maximal response (EC50) stood at 0.01 µM.

Staying with this assay, now noted: read-out: DE-19bDNA EC50; HepDE19 assay, inhibition of formation of relaxed circular DNA (rcDNA), bDNA quantitation.
For the compound `CCN(C(=O)Nc1ccccc1)C(C)c1c[nH]c(=O)c2c(F)c(F)ccc12` (single isomer, unassigned) [Compound 467, 1-(1-(7,8-Difluoro-1-oxo-1,2-dihydroisoquinolin-4-yl)ethyl)-1-ethyl-3-phenylurea], the EC50 came out at 0.066 µM.

For `CC(c1c[nH]c(=O)c2c(F)c(F)ccc12)N(C)C(=O)Nc1ccc(Cl)cc1` (single isomer, unassigned) [Compound 444, 3-(4-Chlorophenyl)-1-(1-(7,8-difluoro-1-oxo-1,2-dihydroisoquinolin-4-yl)ethyl)-1-methylurea], the half-maximal effective concentration (EC50) was 17 µM.

As to `CCN(C(=O)Nc1ccccc1)C(C)c1c[nH]c(=O)c2cc(F)c(F)cc12` (single isomer, unassigned) [Compound 404, 1-(1-(6,7-Difluoro-1-oxo-1,2-dihydroisoquinolin-4-yl)ethyl)-1-ethyl-3-phenylurea], the concentration for a half-maximal effect (EC50) stood at 18 µM.

A word on the EC50: it is the concentration needed to bring the measured effect to its halfway point.
